In paper PMC3032760, “Two-dose-level confirmatory study of the pharmacokinetics and tolerability of everolimus in Chinese patients with advanced solid tumors” (Journal of Hematology & Oncology, 2011):
Values joined by “and” are separate entries in the source; they are usually repeats but may differ in a detail not shown here. Equal entries are not always repeated. Where two headings read alike, the source gives them in different places.

Tests used:
Assay type in all cases: in vivo, human
[1] = Safety and tolerability: adverse events graded by NCI CTCAE v3.0; conditions: for Deaths during the study: considered unrelated to everolimus
Excerpt: Safety assessments included incidence, severity, and treatment relationship of adverse and serious adverse events and the regular monitoring of hematology, serum and urine chemistry, vital signs, and physical condition. Adverse events were graded according to the National Cancer Institute's Common Terminology Criteria for Adverse Events, version 3.0 [22]. The safety population consisted of all patients who received ≥1 dose of study drug and had ≥1 post-baseline safety assessment.

[2] = Everolimus blood pharmacokinetics (24-h profile day 15, trough levels) in Chinese patients with advanced solid tumors; conditions: for Tmax / Cmax / AUC: human, whole blood; for Tmax: po, read-out: Tmax, median (range); for Cmax / AUC: n = 12, day 15, blood; for Cmax / AUC / Cmin (pre-dose trough concentration): mean (% coefficient of variation); for AUC: read-out: AUC0-τ; for CL/F, mean (± standard deviation): after reaching steady state; for Cmin (pre-dose trough concentration): n = 12, blood; for Time to steady-state levels: continuous daily dosing
Experimental: Blood samples for everolimus 24-h PK profile were collected on day 15 pre-dose and at 1, 2, 4, 6, 8, and 24 h post-dose; blood samples for everolimus trough concentration were collected pre-dose on days 2, 8, 16, and 22. Everolimus concentration was determined after liquid extraction by a liquid chromatography-mass spectroscopy method with lower limits of quantification for everolimus of 0.3 ng/mL. PK parameters of everolimus determined for each cohort included the maximum blood concentration (Cmax), minimum blood concentration (Cmin), time to maximum concentration (Tmax), area under the dosing curve (AUC0-τ), and total body apparent clearance of drug from the blood (CL/F). PK analyses were performed on all patients in the safety population with a sufficient number of evaluable blood samples.

advanced solid tumors = assay: Tumor response and progression by RECIST; conditions: for Best overall tumor response stable disease, patients: n = 12; for Patients with stable disease: both cohorts, 6 patients per tumor type
Experimental: Tumor response and progression was assessed locally for all randomized patients using RECIST criteria. A computed tomography scan or magnetic resonance image of the chest, abdomen, and pelvis was performed at screening and every 2 months (±7 days) thereafter. Confirmatory imaging results ≥4 weeks after an initial observation were required for a positive assessment of complete or partial response.

[3] = Patient disposition at final analysis; conditions: n = 12
Experimental: Patients continued treatment until tumor progression, unacceptable toxicity, death, or discontinued if the investigator or patient felt it was in the patient's best interest to discontinue participation. Dose modifications were allowed in the event of adverse events grade ≥2. Specific nomograms were followed to manage patients who developed known toxicities of everolimus, such as non-infectious pneumonitis.
This final analysis was performed after all patients had received 6 months of study drug or had discontinued from the study.

[4] = 5 mg/day, n = 12, suspected relationship to everolimus
[5] = 10 mg/day, n = 12, suspected relationship to everolimus

CO[C@H]1C[C@@H]2CC[C@@H](C)[C@@](O)(O2)C(=O)C(=O)N2CCCC[C@H]2C(=O)O[C@H]([C@H](C)C[C@@H]2CC[C@@H](OCCO)[C@H](OC)C2)CC(=O)[C@H](C)/C=C(\C)[C@@H](O)[C@@H](OC)C(=O)[C@H](C)C[C@H](C)/C=C/C=C/C=C/1C [Everolimus, everolimus]
Fatigue suspected to be related to everolimus, patients ([1]; 5 mg/day cohort): 16.7%
Hyperglycemia (increased blood glucose) suspected to be related to everolimus, patients ([1]; 5 mg/day cohort): 16.7%
Patients with grade 3 adverse events suspected to be related to everolimus ([1]; 5 mg/day cohort): 25%
Deaths during the study ([1]; 5 mg/day cohort): 1
Adverse events with suspected relationship to everolimus: Total, All grades ([1]; 5 mg/day, n = 12): 12 (100) n (%)
Adverse events with suspected relationship to everolimus: Total, Grade 3 ([1]; 5 mg/day, n = 12): 3 (25.0) n (%)
Adverse events with suspected relationship to everolimus: Total, Grade 4 ([1]; 5 mg/day, n = 12): 0 n (%)
Anemia, All grades [1, 4]: 1 (8.3) n (%)
Anemia, Grade 3 [1, 4]: 1 (8.3) n (%)
Anemia, Grade 4 [1, 4]: 0 n (%)
Blood alkaline phosphatase increased, All grades [1, 4]: 1 (8.3) n (%)
Blood alkaline phosphatase increased, Grade 3 [1, 4]: 0 n (%)
Blood alkaline phosphatase increased, Grade 4 [1, 4]: 0 n (%)
Fatigue, All grades [1, 4]: 2 (16.7) n (%)
Fatigue, Grade 3 [1, 4]: 0 n (%)
Fatigue, Grade 4 [1, 4]: 0 n (%)
Hyperglycemia, All grades [1, 4]: 2 (16.7) n (%)
Hyperglycemia, Grade 3 [1, 4]: 0 n (%)
Hyperglycemia, Grade 4 [1, 4]: 0 n (%)
Hypokalemia, All grades [1, 4]: 3 (25.0) n (%)
Hypokalemia, Grade 3 [1, 4]: 1 (8.3) n (%)
Hypokalemia, Grade 4 [1, 4]: 0 n (%)
Thrombocytopenia, All grades [1, 4]: 2 (16.7) n (%)
Thrombocytopenia, Grade 3 [1, 4]: 1 (8.3) n (%)
Thrombocytopenia, Grade 4 [1, 4]: 0 n (%)
Upper respiratory tract infection, All grades [1, 4]: 1 (8.3) n (%)
Upper respiratory tract infection, Grade 3 [1, 4]: 1 (8.3) n (%)
Fatigue suspected to be related to everolimus, patients ([1]; 10 mg/day cohort): 33.3%
Hyperglycemia (increased blood glucose) suspected to be related to everolimus, patients ([1]; 10 mg/day cohort): 41.7%
Patients with grade 3 adverse events suspected to be related to everolimus ([1]; 10 mg/day cohort): 25%
Deaths during the study ([1]; 10 mg/day cohort): 2
Adverse events with suspected relationship to everolimus: Total, All grades ([1]; 10 mg/day, n = 12): 12 (100) n (%)
Adverse events with suspected relationship to everolimus: Total, Grade 3 ([1]; 10 mg/day, n = 12): 3 (25.0) n (%)
Adverse events with suspected relationship to everolimus: Total, Grade 4 ([1]; 10 mg/day, n = 12): 0 n (%)
Anemia, All grades [1, 5]: 3 (25.0) n (%)
Anemia, Grade 3 [1, 5]: 0 n (%)
Anemia, Grade 4 [1, 5]: 0 n (%)
Blood alkaline phosphatase increased, All grades [1, 5]: 3 (25.0) n (%)
Blood alkaline phosphatase increased, Grade 3 [1, 5]: 1 (8.3) n (%)
Blood alkaline phosphatase increased, Grade 4 [1, 5]: 0 n (%)
Fatigue, All grades [1, 5]: 4 (33.3) n (%)
Fatigue, Grade 3 [1, 5]: 1 (8.3) n (%)
Fatigue, Grade 4 [1, 5]: 0 n (%)
Hyperglycemia, All grades [1, 5]: 5 (41.7) n (%)
Hyperglycemia, Grade 3 [1, 5]: 1 (8.3) n (%)
Hyperglycemia, Grade 4 [1, 5]: 0 n (%)
Hypokalemia, All grades [1, 5]: 2 (16.7) n (%)
Hypokalemia, Grade 3 [1, 5]: 0 n (%)
Hypokalemia, Grade 4 [1, 5]: 0 n (%)
Thrombocytopenia, All grades [1, 5]: 3 (25.0) n (%)
Thrombocytopenia, Grade 3 [1, 5]: 0 n (%)
Thrombocytopenia, Grade 4 [1, 5]: 0 n (%)
Upper respiratory tract infection, All grades [1, 5]: 0 n (%)
Upper respiratory tract infection, Grade 3 [1, 5]: 0 n (%)
Upper respiratory tract infection, Grade 4 [1, 5]: 0 n (%)
Noninfectious pneumonitis ([1]; 5 and 10 mg/day cohorts): not observed
Tolerability ([1]; 5 or 10 mg/day, Chinese patients with advanced solid tumors): well tolerated
Patients reporting ≥1 adverse event ([1]; both cohorts, 24 patients in total): 24 patients
Grade 3 upper respiratory tract infection, patients ([1]; whole study, reversible with remedial treatment and interruption of everolimus): 1 patient
Cmin, Cmax and AUC0-τ with 10 mg/day relative to 5 mg/day ([2]; 10 mg/day versus 5 mg/day): approximately 2 fold
Tmax ([2]; 5 mg/day, oral 5 mg/day, n = 12): 3 h
Tmax ([2]; 10 mg/day, oral 10 mg/day, n = 12): 2 h
Cmax ([2]; oral 5 mg/day): 28.8 ng/mL
AUC ([2]; oral 5 mg/day): 316 ng·h/mL
Cmax ([2]; oral 10 mg/day): 53.8 ng/mL
AUC ([2]; oral 10 mg/day): 589 ng·h/mL
CL/F, mean (± standard deviation) ([2]; oral 5 mg/day): 16.7 (±5.6) L/h
Tmax, median (range) ([2]; oral 5 mg/day, n = 12): 2.96 (1.00-4.00) h
Cmin (pre-dose trough concentration) ([2]; oral 5 mg/day): 8.3 (46.8) ng/mL
CL/F, mean (± standard deviation) ([2]; oral 10 mg/day): 18.2 (±7.2) L/h
Cmin (pre-dose trough concentration) ([2]; oral 10 mg/day): 14.5 (47.9) ng/mL
Time at which maximum blood concentrations were generally reached ([2]; oral 5 and 10 mg/day): 2 to 4 h
Time to steady-state levels ([2]; oral 5 and 10 mg/day): ≤ 8 days
Time to steady-state levels ([2]; oral 5 and 10 mg/day, listed as everolimus): 8 days
Progressive disease as best overall response, patients (advanced solid tumors; 5 mg/day cohort): 16.7%
Best overall tumor response stable disease, patients (advanced solid tumors; 5 mg/day cohort): 83% and 83.3%
Median duration of stable disease (advanced solid tumors; 5 mg/day cohort, 95% CI 2.89-8.05): 5.03 months
Progressive disease as best overall response, patients (advanced solid tumors; 10 mg/day cohort): 41.7%
Best overall tumor response stable disease, patients (advanced solid tumors; 10 mg/day cohort): 50%
Median duration of stable disease (advanced solid tumors; 10 mg/day cohort, 95% CI 3.58-not reached): 6.08 months
Median duration of stable disease (advanced solid tumors; 4 patients with RCC, at data cutoff, 95% CI 6.08-11.1+): not yet been reached
Complete or partial responses (advanced solid tumors; 5 and 10 mg/day cohorts, RECIST): No complete or partial responses
Patients with stable disease (advanced solid tumors; NSCLC): 4 patients
Patients with stable disease (advanced solid tumors; RCC): 4 patients
Patients with stable disease (advanced solid tumors; breast cancer): 3 patients
Patients with stable disease (advanced solid tumors; gastric cancer): 5 patients
Discontinued: Death ([3]; 5 mg/day): 0 n (%)
Discontinued: Disease progression ([3]; 5 mg/day): 9 (75.0) n (%)
Discontinued: Death ([3]; 10 mg/day): 2 (16.7) n (%)
Discontinued: Disease progression ([3]; 10 mg/day): 7 (58.3) n (%)
